# Experimental data reported in PubChem BioAssay AID652282 (Vanderbilt Specialized Chemistry Center, 2013).
# Activity calls are given as the source filed them. The rule behind the calls is not given here.
# Test system: BMP4-induced signaling reporter cell assay
# Test: blockade of BMP4-driven reporter signal – reporter cells, SAR follow-up (AID 652282)
# Settings: not given
row,Structure (SMILES),IC50
1,Clc1cc(-c2cnn3cc(-c4ccc(N5CCOCC5)cc4)cnc23)ccn1,609 nM
2,c1ccc2c(-c3cnn4cc(-c5ccc(N6CCNCC6)cc5)cnc34)csc2c1,225 nM
3,c1cc(N2CCOCC2)ccc1-c1cnc2c(-c3cn[nH]c3)cnn2c1,172 nM
4,COc1ccc(-c2cnc3c(-c4ccnc5ncccc45)cnn3c2)cc1,38 nM
5,COc1ccc(-c2cnc3c(-c4cncc5ccccc45)cnn3c2)cc1,4900 nM
6,COc1ccc(-c2cnc3c(-c4ccnc5ccsc45)cnn3c2)cc1,4500 nM

# Next, values leading:
row,IC50,Structure (SMILES)
1,274 nM,c1ccc2c(-c3cnn4cc(-c5ccc(N6CCOCC6)cc5)cnc34)csc2c1
2,270 nM,Clc1cc(-c2cnn3cc(-c4ccc(N5CCNCC5)cc4)cnc23)ccn1
3,6700 nM (inactive),COc1ccc(-c2cnc3c(-c4cccc5cccnc45)cnn3c2)cc1
4,152 nM,COc1ccc(-c2cnc3c(-c4cccc5ncccc45)cnn3c2)cc1

# Test system: not listed separately
# Test: as above
# Settings: BMP4-induced signaling reporter cell assay; at 10 µM (top of the series)
row,Structure (SMILES),remaining activity %
1,c1ccc2c(-c3cnn4cc(-c5ccc(N6CCOCC6)cc5)cnc34)ccnc2c1,-11
2,c1cc(N2CCNCC2)ccc1-c1cnc2c(-c3cn[nH]c3)cnn2c1,-11.7
3,COc1ccc(-c2cnc3c(-c4ccnc5ccccc45)cnn3c2)cc1,-16.3
